How the values were obtained:
Experiment in all cases: Post-emergence test, weed control effect
Type in all cases: in vivo
Conditions in all cases: after 3 weeks
[1] = test system: Amaranthus retroflexus
Text: (§1) The activity level standard of harmful plant destruction (i.e. growth inhibition rate) is as follows: • Level 10: completely dead; • Level 9: above 90% growth inhibition rate; • Level 8: above 80% growth inhibition rate; • Level 7: above 70% growth inhibition rate; • Level 6: above 60% growth inhibition rate; • Level 5: above 50% growth inhibition rate; • Level 4: above 40% growth inhibition rate; • Level 3: above 30% growth inhibition rate; • Level 2: above 20% growth inhibition rate; • Level 1: below 20% growth inhibition rate; • Level 0: no effect.
(§2) The above described growth inhibition rates are fresh weight inhibition rates.
(§3) Experiment of post-emergence test: monocotyledonous and dicotyledonous weed seeds as well as main crop seeds (i.e., wheat, corn, rice, soybean, cotton, oilseed rape, millet and sorghum) were put into a plastic pot loaded with soil, then covered with 0.5-2 cm of soil, and the seeds were allowed to grow in good greenhouse environment. The test plants were treated at 2-3 leaf stage 2-3 weeks after sowing. The test compounds of the invention were dissolved in acetone respectively, then added with Tween-80 and diluted by a certain amount of water to give solutions with certain concentrations, and added with 80% vegetable oil methyl ester synergist at 1500 g/ha. The solution was sprayed to the plants with a sprayer. The plants were cultured for 3 weeks in the greenhouse.

[2] = test system: Rorippa indica
Text: as §1, §2, §3

[3] = test system: Veronica polita
Text: as §1, §2, §3

[4] = test system: Chenopodiaceae
Text: as §1, §2, §3

O=C(Oc1cc(C(F)(F)F)nnc1-c1ccccc1)C1CCCCC1 [Compound 1-19]
10: weed control effect, Amaranthus retroflexus (activity level) ([1]; Dose 3000 g/ha) | weed control effect, Rorippa indica (activity level) ([2]; Dose 3000 g/ha) | weed control effect, Veronica polita (activity level) ([3]; Dose 3000 g/ha) | weed control effect, Chenopodiaceae (activity level) ([4]; Dose 3000 g/ha)

Oc1cc(C(F)(F)F)nnc1-c1cccc2cnccc12 [Compound 636]
10: weed control effect (activity level), Amaranthus retroflexus ([1]; Dose 3000 g/ha) | weed control effect (activity level), Rorippa indica ([2]; Dose 3000 g/ha) | weed control effect (activity level), Veronica polita ([3]; Dose 3000 g/ha) | weed control effect (activity level), Chenopodiaceae ([4]; Dose 3000 g/ha)

Oc1cc(C(F)(F)F)nnc1-c1cccc(F)c1 [Compound 736]
10: weed control effect (activity level), Amaranthus retroflexus ([1]; dose 1000 g/ha) | weed control effect (activity level), Rorippa indica ([2]; dose 1000 g/ha) | weed control effect (activity level), Veronica polita ([3]; dose 1000 g/ha) | weed control effect (activity level), Chenopodiaceae ([4]; dose 1000 g/ha)

CCSC(=O)Oc1cc(C(F)(F)F)nnc1-c1ccc(F)c(F)c1 [Compound 1-42]
10: weed control effect, Amaranthus retroflexus (activity level) ([1]; Dose 3000 g/ha) | weed control effect, Rorippa indica (activity level) ([2]; Dose 3000 g/ha) | weed control effect, Veronica polita (activity level) ([3]; Dose 3000 g/ha) | weed control effect, Chenopodiaceae (activity level) ([4]; Dose 3000 g/ha)

NC(=O)c1ccc(S(=O)(=O)Oc2cc(C(F)(F)F)nnc2-c2ccc(C(F)(F)F)cc2)cc1 [Compound 1-141]
10: weed control effect, Amaranthus retroflexus (activity level) ([1]; Dose 3000 g/ha) | weed control effect, Rorippa indica (activity level) ([2]; Dose 3000 g/ha) | weed control effect, Veronica polita (activity level) ([3]; Dose 3000 g/ha) | weed control effect, Chenopodiaceae (activity level) ([4]; Dose 3000 g/ha)

Oc1cc(C(F)(F)F)nnc1-c1c(Cl)ccnc1Cl [Compound 993]
10: weed control effect (activity level), Amaranthus retroflexus ([1]; Dose 3000 g/ha) | weed control effect (activity level), Rorippa indica ([2]; Dose 3000 g/ha) | weed control effect (activity level), Veronica polita ([3]; Dose 3000 g/ha) | weed control effect (activity level), Chenopodiaceae ([4]; Dose 3000 g/ha)

O=S(=O)(Oc1cc(C(F)(F)F)nnc1-c1ccc(F)c(F)c1)c1cc(F)c(Br)cc1F [Compound 1-138]
10: weed control effect, Amaranthus retroflexus (activity level) ([1]; Dose 3000 g/ha) | weed control effect, Rorippa indica (activity level) ([2]; Dose 3000 g/ha) | weed control effect, Veronica polita (activity level) ([3]; Dose 3000 g/ha) | weed control effect, Chenopodiaceae (activity level) ([4]; Dose 3000 g/ha)

Oc1cc(C(F)(F)F)nnc1-c1cc(F)cc(Br)c1 [Compound 49]
10: weed control effect (activity level), Amaranthus retroflexus ([1]; dose 1000 g/ha) | weed control effect (activity level), Rorippa indica ([2]; dose 1000 g/ha) | weed control effect (activity level), Veronica polita ([3]; dose 1000 g/ha) | weed control effect (activity level), Chenopodiaceae ([4]; dose 1000 g/ha)

O=C(COc1cc(C(F)(F)F)nnc1-c1ccc(F)c(F)c1)c1ccccc1 [Compound 1-213]
10: weed control effect, Amaranthus retroflexus (activity level) ([1]; Dose 3000 g/ha) | weed control effect, Rorippa indica (activity level) ([2]; Dose 3000 g/ha) | weed control effect, Veronica polita (activity level) ([3]; Dose 3000 g/ha) | weed control effect, Chenopodiaceae (activity level) ([4]; Dose 3000 g/ha)

Cc1cc(C)c(-c2nnc(C(F)(F)F)cc2O)o1 [Compound 439]
10: weed control effect (activity level), Amaranthus retroflexus ([1]; Dose 3000 g/ha) | weed control effect (activity level), Rorippa indica ([2]; Dose 3000 g/ha) | weed control effect (activity level), Veronica polita ([3]; Dose 3000 g/ha) | weed control effect (activity level), Chenopodiaceae ([4]; Dose 3000 g/ha)

Oc1cc(C(F)(F)F)nnc1-c1cccc2ccccc12 [Compound 380]
10: weed control effect (activity level), Amaranthus retroflexus ([1]; dose 2000 g/ha) | weed control effect (activity level), Rorippa indica ([2]; dose 2000 g/ha) | weed control effect (activity level), Veronica polita ([3]; dose 2000 g/ha) | weed control effect (activity level), Chenopodiaceae ([4]; dose 2000 g/ha)

O=C(/C=C\c1ccccc1)Oc1cc(C(F)(F)F)nnc1-c1ccc(Cl)cc1 [Compound 1-96]
10: weed control effect, Amaranthus retroflexus (activity level) ([1]; Dose 3000 g/ha) | weed control effect, Rorippa indica (activity level) ([2]; Dose 3000 g/ha) | weed control effect, Veronica polita (activity level) ([3]; Dose 3000 g/ha) | weed control effect, Chenopodiaceae (activity level) ([4]; Dose 3000 g/ha)

CN(C)c1cc(-c2nnc(C(F)(F)F)cc2O)n(C)n1 [Compound 787]
10: weed control effect (activity level), Amaranthus retroflexus ([1]; Dose 3000 g/ha) | weed control effect (activity level), Rorippa indica ([2]; Dose 3000 g/ha) | weed control effect (activity level), Veronica polita ([3]; Dose 3000 g/ha) | weed control effect (activity level), Chenopodiaceae ([4]; Dose 3000 g/ha)

O=C(Oc1cc(C(F)(F)F)nnc1-c1ccc(F)cc1)Sc1ccccc1 [Compound 1-164]
10: weed control effect, Amaranthus retroflexus (activity level) ([1]; Dose 3000 g/ha) | weed control effect, Rorippa indica (activity level) ([2]; Dose 3000 g/ha) | weed control effect, Veronica polita (activity level) ([3]; Dose 3000 g/ha) | weed control effect, Chenopodiaceae (activity level) ([4]; Dose 3000 g/ha)

Oc1cc(C(F)(F)F)nnc1-c1cncc(F)c1 [Compound 963]
10: weed control effect (activity level), Amaranthus retroflexus ([1]; Dose 3000 g/ha) | weed control effect (activity level), Rorippa indica ([2]; Dose 3000 g/ha) | weed control effect (activity level), Veronica polita ([3]; Dose 3000 g/ha) | weed control effect (activity level), Chenopodiaceae ([4]; Dose 3000 g/ha)

Cc1cc(-c2nnc(C(F)(F)F)cc2O)cnc1Cl [Compound 225]
10: weed control effect (activity level), Amaranthus retroflexus ([1]; dose 2000 g/ha) | weed control effect (activity level), Rorippa indica ([2]; dose 2000 g/ha) | weed control effect (activity level), Veronica polita ([3]; dose 2000 g/ha) | weed control effect (activity level), Chenopodiaceae ([4]; dose 2000 g/ha)

Cn1nc(I)cc1-c1nnc(C(F)(F)F)cc1O [Compound 778]
10: weed control effect (activity level), Amaranthus retroflexus ([1]; Dose 3000 g/ha) | weed control effect (activity level), Rorippa indica ([2]; Dose 3000 g/ha) | weed control effect (activity level), Veronica polita ([3]; Dose 3000 g/ha) | weed control effect (activity level), Chenopodiaceae ([4]; Dose 3000 g/ha)

Source: patent publication US12568972B2, “Pyridazinol compounds and derivatives, preparation methods, herbicidal compositions and applications thereof” (Qingdao Kingagroot Chemical Compound Co., Ltd., priority 2018, dated 2026)
